Source: ChEMBL document CHEMBL1135451, “Electrochemical and peroxidase oxidation study of N'-hydroxyguanidine derivatives as NO donors” (Bioorg Med Chem Lett, 2002)

assay: NO-releasing ability under the oxidation by horseradish peroxidase (HRP) in the presence of H2O2 for 20min, expressed as nitrite concentration; type: functional

Structure (SMILES) | Concentration [µM]
N=C(N)NCCC[C@H](N)C(=O)O | 0
N=C(NO)Nc1ccc(Cl)cc1 | 63
N=C(NO)Nc1ccccc1 | 28
N/C(=N/Cc1ccc([N+](=O)[O-])cc1)NO | 65
N=C(NO)NCc1ccccc1 | 33
N/C(=N/Cc1ccc(Cl)cc1)NO | 151
COc1ccc(NC(=N)NO)cc1 | 24
Cc1ccc(C/N=C(/N)NO)cc1 | 113
N/C(=N/c1ccc(Br)cc1)NO | 54
N/C(=N/CCCC(N)C(=O)O)NO (configuration not stated) | 12
Cc1ccc(NC(=N)NO)cc1 | 6
COc1ccc(C/N=C(/N)NO)cc1 | 49
